The results in this text go back to patent US20050271606A1, “Composition for treating inflammation which contains zinc pyrrolidonecarboxylate” (priority 2004, published 2005).

Assay type in all cases: cell-based
One test deals with AP-1. Description: Action on AP-1 activation by ultraviolet ray (UVA) in human dermal fibroblasts, activated AP-1 in nucleoprotein (gel shift or ELISA assay). The settings on record: 50 μM, 18 h incubation, UVA 20 J/cm^2. The procedure:
(§1) The fibroblasts were irradiated with ultraviolet rays (UVA: 20 J/cm^2) using Dermaray M-DMR-80 (manufactured by Toshiba Iryoyohin). After 4 to 5 hours, the fibroblasts were recovered and the nucleoprotein was extracted therefrom by a conventional method. The resulting nucleoprotein was subjected to a gel shift assay or an ELISA assay (TransAM Kit, ACTIVE MOTIF) to detect activated AP-1. When applying the gel shift assay, the radioactive value of the AP-1 band was measured using a bio-imaging analyzer BAS 2000 (manufactured by Fuji Photo Film).
The suppression rate of the test compound for AP-1 activation was calculated from the following formula. Suppression Rate for AP-1 Activation (%)={1−(A1−A3)/(A2−A3)}×100 A1: radioactive value of AP-1 band when a test compound was added A2: radioactive value of AP-1 band when no test compound was added A3: radioactive value of AP-1 band when no test compound was added and no irradiation with ultraviolet rays
In general terms: In EMSA bound probe runs differently from free probe, usually more slowly.

A further test deals with AP-1 (c-Jun). Description: AP-1 activation by ultraviolet ray in human dermal fibroblasts, ELISA assay (TransAM Kit), quantity of c-Jun. Conditions: 18 h incubation, UVA 20 J/cm^2, ELISA. The procedure:
as §1
(§2) An ELISA assay was performed in accordance with the manual of the kit used, and the activation of AP-1 was obtained by determination of the quantity of c-Jun or c-Fos.
(§3) The suppression rate of AP-1 (c-Jun or c-Fos) activation of a test compound was calculated from the following formula. Suppression Rate for AP-1 Activation (%)={1−{B1−B3)/(B2−B3)}×100 B1: 450 nm absorbance when a test compound was added (per nucleoprotein) B2: 450 nm absorbance when no test compound was added (per nucleoprotein) B3: 450 nm absorbance when no test compound was added and no ultraviolet ray was irradiated (per nucleoprotein)
A general note: ELISA stands for enzyme-linked immunosorbent assay.

In a further test the test system is AP-1 (c-Fos). Nature of the test: AP-1 activation by ultraviolet ray in human dermal fibroblasts, ELISA assay (TransAM Kit), quantity of c-Fos. The settings on record: 18 h incubation, UVA 20 J/cm^2, ELISA. The procedure:
as §1, §2, §3

`O=C1CCC(C(=O)[O-])N1.O=C1CCC(C(=O)[O-])N1.[Zn+2]` (racemic) [Zinc DL-Pyrrolidonecarboxylate]: the “Suppressing Rate (%) for AP-1 activation” value with AP-1 was found to be 38.8%.
On to `O=C1CC[C@@H](C(=O)[O-])N1.O=C1CC[C@@H](C(=O)[O-])N1.[Zn+2]` [Zinc L-Pyrrolidonecarboxylate], for which the “Suppressing Rate (%) (c-Jun)” value worked out at 109.5% in the test with AP-1 (c-Jun) (10 μM) and 106.7% in the test with AP-1 (c-Jun) (100 μM). The “Suppressing Rate (%) (c-FOS)” value is 69.3% with AP-1 (c-Fos) (10 μM) and 77.0% in the test with AP-1 (c-Fos) (100 μM).
With `NCC(=O)[O-].NCC(=O)[O-].[Zn+2]` [Zinc Salt of Glycine], the “Suppressing Rate (%) for AP-1 activation” value in the test on AP-1 is reported as −72.8%.
Consider Zinc Laurate, for which the “Suppressing Rate (%) for AP-1 activation” value in the test on AP-1 is 9.1%.
